Several values for one entry are separate records, joined by “and”; a condition that tells them apart may be missing. Identical values can stand only once. Like-named read-outs stand apart in the source and are kept apart here.
Tests used:
HEK293 cells = assay: CellTiter-Glo 2.0 cell viability assay; format: cell-based; conditions: Homo sapiens; for EC50: 120 h incubation, nontumorigenic cell line
Experimental: (§1) To evaluate the cytotoxicity of the selected HDAC inhibitors, compounds were tested for their antiproliferative activity against MV-3 and MDA-MB-231 cells using the MTT assay. […] (Promega; Walldorf, Germany) was utilized to assess the antiproliferative effects. MM.1S and HEK293 cells were seeded at a density of 1000 cells per well in 384-well plates, with each well containing 22.5 μL of volume. […] Subsequently, cells were stimulated with 2.5 μL of the dilution series of the test compounds. Following compound exposure, the plates were incubated for 120 h in the incubator set at 37 °C with 5% CO2. Post 120 h of incubation, 25.0 μL of CellTiter-Glo reagent was dispensed into each well and the plates were incubated at the room temperature for 10 min. Luminescence was then measured using a Spark multimode microplate reader (Tecan Group AG, Maennedorf, Swiss). Data were normalized against controls: wells treated with 0.5% DMSO were set as 100% viable, while those treated with 10% DMSO were considered completely nonviable (0% viability).

MM.1S cells = assay: CellTiter-Glo 2.0 cell viability assay; format: cell-based; conditions: Homo sapiens, MM1.S; 120 h incubation
Experimental: as §1

HDAC1 [1] = conditions: cited from earlier work
HDAC3 = system: HDAC3; design: method as in earlier work; conditions: Figure 1 and b11; ref 'Data taken from refs' (numbers not given); cited from earlier work
HDAC6 = system: HDAC6; design: method as in earlier work; conditions: Figure 1; ref 'Data taken from refs' (numbers not given); cited from earlier work
HDAC4–8 = system: HDAC4–8; design: method as in number not given; conditions: literature value for Cpd-60; ref number not given; cited from earlier work
[2] = system: HDACs in MDA-MB-231 cells; assay: HDAC whole cell inhibition assay; conditions: Homo sapiens, MDA-MB-231, light or radiation study, 18 h, read-out: whole-cell HDAC inhibition EC50, MDA-MB-231
HDAC1 [3] = biological target: T1, HDAC1 (Homo sapiens, UniProt Q13547); assay: Binding kinetics via the progression method (continuous HDAC assay); format: biochemical; design: purchased BPS Bioscience Inc. #50051; conditions: 45 min, 28 °C
Experimental: To this end, HDAC1, the substrate, and trypsin were incubated directly with the inhibitor at various concentrations and fluorescence was recorded continuously for 45 min. […] By plotting the ratio of the deacetylation rate in the presence of the inhibitor (v i) to the rate in absence of any inhibitor (v 0) as a function of the inhibitor concentration and fitting the data to an appropriate model (eq 3), the equilibrium […] K i was determined (Figure ).
To investigate the binding mode of both compounds, we performed molecular docking studies. Specifically, ST13 was docked into HDAC2 (PDB ID: 3MAX), a cocrystal structure containing an HDAC inhibitor with an ortho-aminoanilide ZBG and a phenyl group as the FPU.
Appropriate test compound concentrations were chosen based on the previously determined IC50 values. […] Each progression curve was fitted to either obtain the apparent first-order rate constant k obs (eq ) or the linear conversion rates v i and v 0 (eq ). For fast-on/fast-off inhibitors, the ratio v i/v 0 was plotted against the corresponding inhibitor concentrations.

HDAC1 [4] = biological target: T1, HDAC1; assay: IC50-shift (preincubation time) experiments
HDAC2 = HDAC2 (Homo sapiens, UniProt Q92769); assay: IC50-shift (preincubation time) experiments
human recombinant HDAC3 = human recombinant HDAC3 (Homo sapiens, UniProt O15379); assay: Fluorescence-based biochemical HDAC enzyme inhibition assay (ZMAL substrate); conditions: HDAC3 IC50, preincubation of enzyme and inhibitor 1 h at RT; no irradiation
Chain of human recombinant HDAC3 (O15379 whole entry): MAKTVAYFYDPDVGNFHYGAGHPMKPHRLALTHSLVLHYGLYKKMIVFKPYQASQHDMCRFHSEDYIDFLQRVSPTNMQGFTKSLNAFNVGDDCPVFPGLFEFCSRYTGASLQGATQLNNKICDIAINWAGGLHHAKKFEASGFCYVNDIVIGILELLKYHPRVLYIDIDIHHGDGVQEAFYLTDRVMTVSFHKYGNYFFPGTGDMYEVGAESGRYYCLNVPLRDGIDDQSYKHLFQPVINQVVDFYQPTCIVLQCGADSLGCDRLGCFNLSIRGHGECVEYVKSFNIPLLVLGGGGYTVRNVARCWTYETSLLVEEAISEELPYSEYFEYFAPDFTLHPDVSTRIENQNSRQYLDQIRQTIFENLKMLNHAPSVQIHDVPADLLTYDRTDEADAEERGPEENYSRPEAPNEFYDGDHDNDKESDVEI
Chain of human recombinant HDAC3 (Q9Y618 395-489 partner limits assumed): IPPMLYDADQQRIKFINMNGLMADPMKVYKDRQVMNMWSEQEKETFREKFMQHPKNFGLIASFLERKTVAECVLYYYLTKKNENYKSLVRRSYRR

T1 sequence (Q13547 whole entry): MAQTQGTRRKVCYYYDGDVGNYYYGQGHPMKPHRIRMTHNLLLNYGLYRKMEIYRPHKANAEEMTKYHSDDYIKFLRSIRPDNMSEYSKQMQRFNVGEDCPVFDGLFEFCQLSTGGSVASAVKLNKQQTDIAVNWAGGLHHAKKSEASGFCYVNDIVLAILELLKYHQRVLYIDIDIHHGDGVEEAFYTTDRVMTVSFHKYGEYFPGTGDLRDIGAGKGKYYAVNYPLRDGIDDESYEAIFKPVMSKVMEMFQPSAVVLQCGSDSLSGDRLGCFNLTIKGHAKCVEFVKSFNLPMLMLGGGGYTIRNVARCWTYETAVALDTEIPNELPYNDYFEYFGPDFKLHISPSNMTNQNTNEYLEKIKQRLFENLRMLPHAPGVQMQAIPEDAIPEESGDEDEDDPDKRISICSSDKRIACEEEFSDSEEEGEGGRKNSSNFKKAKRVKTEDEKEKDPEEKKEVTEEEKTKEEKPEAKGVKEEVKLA
Chain of HDAC2 (Q92769 whole entry): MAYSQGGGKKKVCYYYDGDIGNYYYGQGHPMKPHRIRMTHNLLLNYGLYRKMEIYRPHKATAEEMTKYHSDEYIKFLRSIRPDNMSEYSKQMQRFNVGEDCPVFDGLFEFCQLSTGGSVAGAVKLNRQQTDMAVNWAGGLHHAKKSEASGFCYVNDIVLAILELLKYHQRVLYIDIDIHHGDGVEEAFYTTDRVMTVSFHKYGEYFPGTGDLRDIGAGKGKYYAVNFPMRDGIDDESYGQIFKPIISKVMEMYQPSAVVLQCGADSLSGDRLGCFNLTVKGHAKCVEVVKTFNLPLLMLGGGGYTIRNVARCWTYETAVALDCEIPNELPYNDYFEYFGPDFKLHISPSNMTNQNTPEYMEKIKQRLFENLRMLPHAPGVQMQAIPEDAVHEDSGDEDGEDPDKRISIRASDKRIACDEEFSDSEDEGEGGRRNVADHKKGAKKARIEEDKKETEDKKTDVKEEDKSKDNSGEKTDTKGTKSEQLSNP

IC50 (HDAC1 [4]; HDAC1 IC50, preincubation time 5 min) [nM]	IC50 (HDAC1 [4]; HDAC1 IC50, preincubation time 30 min) [nM]	IC50 (HDAC1 [4]; HDAC1 IC50, preincubation time 60 min) [nM]	IC50 (HDAC1 [4]; HDAC1 IC50, preincubation time 120 min) [nM]	IC50 (HDAC2; HDAC2 IC50, preincubation time 5 min) [nM]	IC50 (HDAC2; HDAC2 IC50, preincubation time 30 min) [nM]	IC50 (HDAC2; HDAC2 IC50, preincubation time 60 min) [nM]	IC50 (HDAC2; HDAC2 IC50, preincubation time 120 min) [nM]	IC50 (human recombinant HDAC3)	Structure (SMILES)	EC50 (HEK293 cells) [nM]	EC50 (MM.1S cells) [nM]	IC50 (HDAC1 [1]; literature value for Cpd-60, ref number not given) [nM]	IC50 (HDAC3) [µM]	IC50 (HDAC6) [µM]	IC50 (HDAC4–8) [µM]	EC50 [2] [nM]	binding mechanism at HDAC1 (progression curves, kobs versus inhibitor concentration) (HDAC1 [3])	inhibition at 5 µM (HEK293 cells; at 5.00 μM, 120 h, read-out: inhibition at the stated concentration, HEK293 (CellTiter-Glo)) [%]	IC50 (HDAC1 [1]; previously described, ref Methot et al.) [nM]
–	–	–	–	–	–	–	–	–	CC(=O)Nc1ccc(C(=O)Nc2cc(-c3cccs3)ccc2N)cc1 [Cpd-60, reference compound]	1500	111	7	[…]	[…]	[…]	87 ± 8	[…]	–	–
55 ± 7	36 ± 4	34 ± 5	25 ± 3	82 ± 12	83 ± 3	75 ± 5	49 ± 9	4.3 µM and 6.64 µM	CC(=O)Nc1ccc(C(=O)Nc2cc(-c3ccccc3)ccc2O)cc1 [ST13, 4-Acetamido-N-(4-hydroxy-[1,1′-biphenyl]-3-yl)-benzamide]	> 5000	198	–	–	–	–	577 ± 97	induced fit slow-binding mechanism	< 25	18

Reference: publication PMC12706802, “Ortho-Hydroxyanilides: Slow-Acting, Selective Histone Deacetylase 1/2 Inhibitors Suitable for Photocaging Applications” (ACS Pharmacology & Translational Science, 2025)
